Data reported in patent publication US20080009418A1, “Selective Inhibitors” (Alchemia LTD., priority 2004, published 2008).

How the values were obtained:
Human melanocortin (MC5) = target: T1, Human melanocortin (MC5) (Homo sapiens, UniProt P33032); experiment: Radioligand binding, human melanocortin MC5 membranes, FlashPlate, [125I]-NDP-αMSH; details: compound at 10 μM, [125I]-NDP-αMSH
T1 construct: purchased Perkin Elmer Biosignal
Method: (§1) Cloned receptor membrane preparations from Perkin Elmer Biosignal™ were used in radioligand binding assays.
(§2) A1 Human δ-opioid (DOP), A2 Human κ-Opioid (KOP), A3 Human Melanocortin (MC3), A4 Human Melanocortin (MC4), A5 Human melanocortin (MC5), A6 Human melanin-concentrating hormone (MCH1), A7 Human μ-opioid (MOP), A8 Human neurokinin (NK1), A9 Human neuropeptide Y (NPY-Y1), A10 Human opioid (ORL1) A11 Mouse urotensin (mUR2)
(§3) Screening experiments were performed in either a 50 μl filtration or 25 μl FlashPlate assay format using the following protocol:
(§4) 19.5 μl buffer, 0.5 μl of compound diluted in DMSO, 5 μl of radioligand diluted in binding buffer.
(§5) The day prior to performing the experiment 50 μl DMSO was added to each well of the compound plates to yield compounds at a final concentration of 10 mM. Daughter plates were then created by diluting the compounds further in DMSO to a concentration of 0.5 mM. The mother plates were frozen immediately.
(§6) Immobilize membranes into FlashPlate microplates using PerkinElmer BioSignal's proprietary coating procedure. Dilute radioligand to 5× the final concentration in binding buffer. Add 19.5 μl buffer to each well of the FlashPlate. Add 0.5 μl of DMSO (total value, 5 wells), reference ligand (non-specific value, 3 wells) or compound to the corresponding wells in the FlashPlate microplate. Initiate the reaction by adding 5 μl of radioligand to each well. Apply TopSeal-A onto FlashPlate microplates. Incubate at room temperature for 1 hour in the dark. Count for 30 seconds per well on TopCount Microplate Scintillation and Luminescence Counter (PerkinElmer) using a count delay of 60 seconds.
(§7) Percentage inhibition was calculated using the following formula: [formula]

Human μ-opioid (MOP) = target: T2, Human μ-opioid (MOP) (Homo sapiens, UniProt P35372); experiment: Radioligand binding, human μ-opioid (MOP) membranes, FlashPlate, [3H]-Naloxone; details: compound at 10 μM, [3H]-Naloxone
T2 construct: purchased Perkin Elmer Biosignal
Method: as §1, §2, §3, §4, §5, §6, §7

Human Melanocortin (MC3) = target: T3, Human Melanocortin (MC3) (Homo sapiens, UniProt P41968); experiment: Radioligand binding, human melanocortin MC3 membranes, FlashPlate, [125I]-NDP-αMSH; details: compound at 10 μM, [125I]-NDP-αMSH
T3 construct: purchased Perkin Elmer Biosignal
Method: as §1, §2, §3, §4, §5, §6, §7

Human κ-Opioid (KOP) = target: T4, Human κ-Opioid (KOP) (Homo sapiens, UniProt P41145); experiment: Radioligand binding, human κ-opioid (KOP) membranes, filtration, [3H]-Diprenorphine; details: compound at 10 μM, [3H]-Diprenorphine
T4 construct: purchased Perkin Elmer Biosignal
Method: as §1, §2, §3
(§8) 44 μl membranes diluted in buffer, 1 μl of compound diluted in DMSO, 5 μl of radioligand diluted in binding buffer.
as §5
(§9) Thaw membranes on ice then dilute membranes in binding buffer at a concentration of 1 Unit per well. Dilute radio-ligand to 10 times the final concentration in binding buffer. Add 44 μl of diluted membranes to each well of the deep-well plate. Add 1 μl of DMSO (total value, 5 wells), reference ligand (non-specific value, 3 wells) or compound to the corresponding wells in the deep-well plate. Initiate the reaction by adding 5 μl of radioligand to each well and vortex gently. Incubate at room temperature for 1 hour. During incubation, pre-incubate the Multiscreen Harvest plates in 0.3% PEI. Filter over pre-soaked Multiscreen Harvest plates using a Tomtec Harvester. Wash 9 times with 500 μl of cold 50 mM Tris-HCl pH 7.4 at 4° C. and air-dry for 30 minutes at room temperature under a fume hood. Apply a bottom seal to the Multiscreen Harvest plates. Add 25 μl of MicroScint-0 to each well. Apply TopSeal-A to the plate. Count for 30 seconds per well on TopCount Microplate Scintillation and Luminescence Counter (PerkinElmer) using a count delay of 60 seconds.
as §7

Human neurokinin (NK1) = target: T5, Human neurokinin (NK1) (Homo sapiens, UniProt P25103); experiment: Radioligand binding, human neurokinin NK1 membranes, filtration, [125I]-Substance P; details: compound at 10 μM, [125I]-Substance P
T5 construct: purchased Perkin Elmer Biosignal
Method: as §1, §2, §3, §8, §5, §9, §7

Human opioid (ORL1) = target: T6, Human opioid (ORL1) (Homo sapiens, UniProt P41146); experiment: Radioligand binding, human opioid ORL1 membranes, FlashPlate, [125I]-Nociceptin; details: compound at 10 μM, [125I]-Nociceptin
T6 construct: purchased Perkin Elmer Biosignal
Method: as §1, §2, §3, §4, §5, §6, §7

[1] = target: T7, Human neuropeptide Y (NPY-Y1) (Homo sapiens, UniProt P25929); experiment: Radioligand binding, human neuropeptide Y NPY-Y1 membranes, FlashPlate, [125I]-PYY; details: compound at 10 μM, [125I]-PYY
T7 construct: purchased Perkin Elmer Biosignal
T7 sequence (P25929 1-384): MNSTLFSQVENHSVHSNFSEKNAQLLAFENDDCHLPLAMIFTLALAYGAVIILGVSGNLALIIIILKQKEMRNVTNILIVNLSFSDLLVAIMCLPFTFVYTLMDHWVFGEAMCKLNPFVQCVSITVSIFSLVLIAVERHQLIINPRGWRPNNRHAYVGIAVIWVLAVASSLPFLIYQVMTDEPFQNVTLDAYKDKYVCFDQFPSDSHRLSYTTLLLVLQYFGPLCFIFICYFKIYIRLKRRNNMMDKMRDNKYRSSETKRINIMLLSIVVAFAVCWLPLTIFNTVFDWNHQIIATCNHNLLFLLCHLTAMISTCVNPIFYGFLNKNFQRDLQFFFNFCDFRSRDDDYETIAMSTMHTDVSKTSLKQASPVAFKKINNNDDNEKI
Method: as §1, §2, §3, §4, §5, §6, §7

[2] = target: T8, Human melanin-concentrating hormone (MCH1) (Homo sapiens, UniProt Q99705); experiment: Radioligand binding, human melanin-concentrating hormone MCH1 membranes, FlashPlate, [125I]-S36057; details: compound at 10 μM
T8 construct: purchased Perkin Elmer Biosignal
Method: as §1, §2, §3, §4, §5, §6, §7

Mouse urotensin (mUR2) = target: T9, Mouse urotensin (mUR2) (Mus musculus, UniProt Q8VIH9); experiment: Radioligand binding, mouse urotensin mUR2 membranes, FlashPlate, [125I]-Urotensin II; details: compound at 10 μM, [125I]-Urotensin II
T9 construct: purchased Perkin Elmer Biosignal
T9 sequence (Q8VIH9 1-385): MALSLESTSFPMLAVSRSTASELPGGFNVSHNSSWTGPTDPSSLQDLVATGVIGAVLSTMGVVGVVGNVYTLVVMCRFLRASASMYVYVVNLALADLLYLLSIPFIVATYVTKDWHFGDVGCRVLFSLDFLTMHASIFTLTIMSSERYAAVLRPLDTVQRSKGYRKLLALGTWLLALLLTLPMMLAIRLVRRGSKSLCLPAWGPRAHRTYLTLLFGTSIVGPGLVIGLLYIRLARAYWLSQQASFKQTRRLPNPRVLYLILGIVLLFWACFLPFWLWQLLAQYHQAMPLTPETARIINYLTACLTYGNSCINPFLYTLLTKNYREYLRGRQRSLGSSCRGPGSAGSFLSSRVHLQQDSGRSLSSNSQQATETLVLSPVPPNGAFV
Method: as §1, §2, §3, §4, §5, §6, §7

Human δ-opioid (DOP) = target: T10, Human δ-opioid (DOP) (Homo sapiens, UniProt P41143); experiment: Radioligand binding, human δ-opioid (DOP) membranes, FlashPlate, [3H]-Bremazocine; details: compound at 10 μM, [3H]-Bremazocine
T10 construct: purchased Perkin Elmer Biosignal
Method: as §1, §2, §3, §4, §5, §6, §7

Human Melanocortin (MC4) = target: T11, Human Melanocortin (MC4) (Homo sapiens, UniProt P32245); experiment: Radioligand binding, human melanocortin MC4 membranes, FlashPlate, [125I]-NDP-αMSH; details: compound at 10 μM, [125I]-NDP-αMSH
T11 construct: purchased Perkin Elmer Biosignal
Method: as §1, §2, §3, §4, §5, §6, §7

T10 sequence (P41143 whole entry): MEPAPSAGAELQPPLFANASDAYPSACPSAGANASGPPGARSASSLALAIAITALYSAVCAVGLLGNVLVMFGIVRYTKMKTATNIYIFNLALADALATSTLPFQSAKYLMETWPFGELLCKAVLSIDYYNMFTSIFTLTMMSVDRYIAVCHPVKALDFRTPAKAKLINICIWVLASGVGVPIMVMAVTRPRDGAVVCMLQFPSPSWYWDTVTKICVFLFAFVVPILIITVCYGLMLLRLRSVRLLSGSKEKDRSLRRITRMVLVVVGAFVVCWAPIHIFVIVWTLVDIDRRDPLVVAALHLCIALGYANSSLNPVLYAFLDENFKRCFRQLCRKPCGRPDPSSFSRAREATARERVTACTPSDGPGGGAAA
T1 sequence (P33032 whole entry): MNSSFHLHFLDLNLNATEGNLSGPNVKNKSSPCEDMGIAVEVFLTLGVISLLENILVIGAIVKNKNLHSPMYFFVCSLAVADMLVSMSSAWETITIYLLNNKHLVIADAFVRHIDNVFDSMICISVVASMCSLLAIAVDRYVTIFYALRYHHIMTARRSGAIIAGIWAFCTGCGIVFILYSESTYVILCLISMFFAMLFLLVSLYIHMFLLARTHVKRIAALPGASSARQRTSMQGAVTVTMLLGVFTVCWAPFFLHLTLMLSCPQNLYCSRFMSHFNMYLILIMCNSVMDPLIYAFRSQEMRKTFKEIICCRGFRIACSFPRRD
T8 sequence (Q99705 whole entry): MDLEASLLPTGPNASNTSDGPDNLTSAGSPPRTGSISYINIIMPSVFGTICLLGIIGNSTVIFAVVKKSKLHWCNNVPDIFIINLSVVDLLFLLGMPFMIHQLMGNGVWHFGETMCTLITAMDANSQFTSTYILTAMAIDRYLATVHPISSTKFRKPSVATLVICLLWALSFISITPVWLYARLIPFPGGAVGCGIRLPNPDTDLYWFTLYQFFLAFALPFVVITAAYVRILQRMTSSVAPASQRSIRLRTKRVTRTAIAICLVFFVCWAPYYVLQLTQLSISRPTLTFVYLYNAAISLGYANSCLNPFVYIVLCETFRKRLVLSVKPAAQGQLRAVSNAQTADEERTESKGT
T2 sequence (P35372 whole entry): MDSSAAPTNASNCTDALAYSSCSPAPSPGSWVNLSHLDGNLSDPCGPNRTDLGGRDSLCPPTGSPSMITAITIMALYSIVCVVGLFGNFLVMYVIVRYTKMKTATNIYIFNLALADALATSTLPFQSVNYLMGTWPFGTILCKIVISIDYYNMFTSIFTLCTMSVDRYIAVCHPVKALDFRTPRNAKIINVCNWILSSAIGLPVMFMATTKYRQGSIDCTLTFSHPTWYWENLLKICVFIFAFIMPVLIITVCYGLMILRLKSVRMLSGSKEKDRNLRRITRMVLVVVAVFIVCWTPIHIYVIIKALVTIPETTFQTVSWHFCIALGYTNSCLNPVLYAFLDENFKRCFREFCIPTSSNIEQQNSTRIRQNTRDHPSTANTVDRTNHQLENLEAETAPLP
T11 sequence (P32245 whole entry): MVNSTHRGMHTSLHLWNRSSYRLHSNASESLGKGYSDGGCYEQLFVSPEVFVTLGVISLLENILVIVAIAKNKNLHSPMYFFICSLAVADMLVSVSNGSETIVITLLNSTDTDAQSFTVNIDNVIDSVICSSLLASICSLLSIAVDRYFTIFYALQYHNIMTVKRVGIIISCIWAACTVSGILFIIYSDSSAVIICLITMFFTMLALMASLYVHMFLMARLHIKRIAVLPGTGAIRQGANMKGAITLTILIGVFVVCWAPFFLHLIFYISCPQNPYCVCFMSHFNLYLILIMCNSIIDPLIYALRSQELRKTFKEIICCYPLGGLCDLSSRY
T4 sequence (P41145 whole entry): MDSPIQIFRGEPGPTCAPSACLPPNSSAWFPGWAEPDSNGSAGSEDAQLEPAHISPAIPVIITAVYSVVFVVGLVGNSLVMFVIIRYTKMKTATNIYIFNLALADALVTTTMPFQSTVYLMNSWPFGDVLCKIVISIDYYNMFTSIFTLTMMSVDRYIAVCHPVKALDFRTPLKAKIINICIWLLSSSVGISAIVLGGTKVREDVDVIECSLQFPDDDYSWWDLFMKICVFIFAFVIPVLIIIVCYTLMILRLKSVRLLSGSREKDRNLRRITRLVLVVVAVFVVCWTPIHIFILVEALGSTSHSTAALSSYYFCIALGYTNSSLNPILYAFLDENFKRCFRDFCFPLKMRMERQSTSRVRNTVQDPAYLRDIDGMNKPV
T5 sequence (P25103 whole entry): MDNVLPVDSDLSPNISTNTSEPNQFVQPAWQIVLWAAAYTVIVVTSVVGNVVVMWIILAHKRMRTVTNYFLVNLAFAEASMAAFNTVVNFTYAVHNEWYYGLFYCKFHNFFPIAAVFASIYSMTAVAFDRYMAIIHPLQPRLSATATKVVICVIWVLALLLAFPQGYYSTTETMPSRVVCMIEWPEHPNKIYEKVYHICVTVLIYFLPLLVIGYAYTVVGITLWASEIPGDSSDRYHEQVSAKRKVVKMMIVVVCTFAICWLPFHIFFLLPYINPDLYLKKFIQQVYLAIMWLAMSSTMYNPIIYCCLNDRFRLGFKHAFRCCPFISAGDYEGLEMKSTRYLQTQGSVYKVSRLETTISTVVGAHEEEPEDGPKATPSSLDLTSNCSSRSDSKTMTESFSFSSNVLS
T3 sequence (P41968 whole entry): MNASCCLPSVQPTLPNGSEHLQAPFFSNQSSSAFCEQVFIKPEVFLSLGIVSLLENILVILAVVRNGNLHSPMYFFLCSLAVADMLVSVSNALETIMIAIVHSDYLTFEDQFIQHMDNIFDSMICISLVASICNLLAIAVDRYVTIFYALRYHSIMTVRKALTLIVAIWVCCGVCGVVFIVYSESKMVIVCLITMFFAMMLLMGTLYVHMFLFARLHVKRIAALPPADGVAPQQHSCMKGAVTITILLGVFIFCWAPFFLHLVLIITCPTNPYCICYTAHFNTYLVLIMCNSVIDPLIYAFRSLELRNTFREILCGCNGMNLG
T6 sequence (P41146 whole entry): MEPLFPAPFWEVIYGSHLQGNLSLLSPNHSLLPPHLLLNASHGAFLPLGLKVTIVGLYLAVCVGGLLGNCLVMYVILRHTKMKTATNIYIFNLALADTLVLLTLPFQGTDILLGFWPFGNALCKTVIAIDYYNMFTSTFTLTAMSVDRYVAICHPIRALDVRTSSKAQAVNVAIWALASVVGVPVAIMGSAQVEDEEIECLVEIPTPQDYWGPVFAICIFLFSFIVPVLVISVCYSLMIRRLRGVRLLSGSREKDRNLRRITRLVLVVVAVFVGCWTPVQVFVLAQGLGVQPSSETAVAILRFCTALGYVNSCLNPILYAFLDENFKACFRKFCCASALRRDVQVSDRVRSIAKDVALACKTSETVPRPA

## NCCC(=O)NC1C(OCc2ccc3ccccc3c2)OC(COCc2ccc(Cl)cc2)C(O)C1OCc1ccccc1 (stereo not shown) [compound 389]
Human melanocortin (MC5); human MC5 membranes
  A5: inhibition of radioligand binding: + (“+” indicates greater than 50% inhibition at 10 μM)
Human μ-opioid (MOP); human MOP membranes
  A7: inhibition of radioligand binding: − (“−” indicates less than 50% inhibition at 10 μM)
Human Melanocortin (MC3); human MC3 membranes, 10 µM
  A3: inhibition of radioligand binding: + (“+” indicates greater than 50% inhibition at 10 μM)
Human κ-Opioid (KOP); human KOP membranes
  A2: inhibition of radioligand binding: − (“−” indicates less than 50% inhibition at 10 μM)
Human neurokinin (NK1); human NK1 membranes
  A8: inhibition of radioligand binding: + (“+” indicates greater than 50% inhibition at 10 μM)
Human opioid (ORL1); human ORL1 membranes, 10 µM
  A10: inhibition of radioligand binding: + (“+” indicates greater than 50% inhibition at 10 μM)
[1]; human NPY-Y1 membranes
  A9: inhibition of radioligand binding: − (“−” indicates less than 50% inhibition at 10 μM)
[2]; [125I]-S36057, human MCH1 membranes, 10 µM
  A6: inhibition of radioligand binding: − (“−” indicates less than 50% inhibition at 10 μM)
Mouse urotensin (mUR2); mouse mUR2 membranes
  A11: inhibition of radioligand binding: − (“−” indicates less than 50% inhibition at 10 μM)
Human δ-opioid (DOP); human DOP membranes
  A1: inhibition of radioligand binding: − (“−” indicates less than 50% inhibition at 10 μM)
Human Melanocortin (MC4); human MC4 membranes
  A4: inhibition of radioligand binding: + (“+” indicates greater than 50% inhibition at 10 μM)

## COCC1OC(OCc2ccc(Cl)cc2)C(NC(=O)CCNC(=N)N)C(OCc2ccccc2)C1O (stereo not shown) [compound 196]
Human melanocortin (MC5); FlashPlate
  A5: inhibition of radioligand binding: − (“−” indicates less than 50% inhibition at 10 μM)
Human μ-opioid (MOP); FlashPlate
  A7: inhibition of radioligand binding: − (“−” indicates less than 50% inhibition at 10 μM)
Human Melanocortin (MC3); FlashPlate
  A3: inhibition of radioligand binding: − (“−” indicates less than 50% inhibition at 10 μM)
Human κ-Opioid (KOP); filtration
  A2: inhibition of radioligand binding: − (“−” indicates less than 50% inhibition at 10 μM)
Human neurokinin (NK1); filtration
  A8: inhibition of radioligand binding: + (“+” indicates greater than 50% inhibition at 10 μM)
Human opioid (ORL1); FlashPlate
  A10: inhibition of radioligand binding: − (“−” indicates less than 50% inhibition at 10 μM)
[1]; FlashPlate
  A9: inhibition of radioligand binding: − (“−” indicates less than 50% inhibition at 10 μM)
[2]; [125I]-S36057, FlashPlate
  A6: inhibition of radioligand binding: − (“−” indicates less than 50% inhibition at 10 μM)
Mouse urotensin (mUR2); FlashPlate
  A11: inhibition of radioligand binding: − (“−” indicates less than 50% inhibition at 10 μM)
Human δ-opioid (DOP); FlashPlate
  A1: inhibition of radioligand binding: + (“+” indicates greater than 50% inhibition at 10 μM)
Human Melanocortin (MC4); FlashPlate
  A4: inhibition of radioligand binding: − (“−” indicates less than 50% inhibition at 10 μM)
